Assay results as given in US11577248B2, “Biological membrane-based sensor” (McMaster University, priority 2017, dated 2023).

What was measured:
[1] = system: human red blood cell membranes; assay: HBLOC sensor: cyclic voltammetry with ferricyanide on RBC membrane-coated nanostructured gold electrodes; settings: ferricyanide redox indicator, FIG. 10
Description: Inventors have developed a method which isolates human red blood cells on a silicon chip for use as a safe and quantitative test for hemolytic bacteria. To develop our human blood cells on a chip, a sample of human blood is exposed to a hypotonic solution which causes the RBC's to burst and empty their contents. A series of sonication and washing steps are then applied to isolate only the RBC membrane, and to remove all hemoglobin and other contaminants. The result is a solution of empty membrane sacks known as RBC “ghosts”. This solution is then applied to sensors and allowed to slowly dry, leaving behind stacked sheets of RBC membrane. The sensors use nanostructured gold electrodes, functionalized for the application of the RBC membranes and maximizing the surface area for increased sensitivity of the tests. The coated electrodes are then used as part of a 3-electrode electrochemical cell, where any damage to the cell membrane allows a redox-indicator in solution to access the electrode surface. Under cyclic voltammetry or chronoamperometry measurements the reduction/oxidation of the indicator molecule gives rise to a current that is proportional to the amount of membrane damage. […] Membrane damage was quantitatively measured using ferricyanide as the redox indicator and cyclic voltammetry. […]

RBC membranes = assay: X-ray diffraction of RBC/aspirin complexes (multi-lamellar RBC membranes on silicon wafers); design: species or system human
Description: X-ray scattering data was obtained using the Biological Large Angle Diffraction Experiment (BLADE) in the Laboratory for Membrane and Protein Dynamics at McMaster University. BLADE uses a 9 kW (45 kV, 200 mA) CuKα rotating anode at a wavelength of 1.5418 Å. Both source and detector are mounted on movable arms such that the membranes stay horizontal during the measurements. Focusing multi-layer optics provides a high intensity parallel beam with monochromatic X-ray intensities up to 10^10 counts/(mm^2·s). This beam geometry provides optimal illumination of the solid supported membrane samples to maximize the scattering signal. Note that there is no risk of sample damage using this in-house technique because of the large beam size and relatively low intensity of the X-ray beam as compared to synchrotron sources. The result of an X-ray experiment is a 2-dimensional intensity map of a large area of the reciprocal space, as sketched in FIG. 5. The corresponding real-space length scales are determined by d=2π/ ? and cover length scales from about 2.5 to 100 Å. All scans were measured at 28° C. and 50% relative humidity (RH) hydration. As depicted in FIG. 5a), the wafers were oriented in the X-ray diffractometer, such that the q∥-axis probed lateral structure, parallel to the wafer surface, and the perpendicular axis, qz, probed out-of-plane structure, perpendicular to the substrate. The out-of-plane structure of the membrane was determined using specular reflectivity. The relative electron density, ρ(z), is approximated by a 1-dimensional Fourier analysis. [formula] N is the highest order of the Bragg peaks observed in the experiment. The integrated peak intensities, I, are multiplied by q, to receive the form factors, F(q,). The bilayer form factor F(qz), which is in general a complex quantity, is real-valued in the case of centro-symmetry. The phase problem of crystallography, therefore, simplifies to the sign problem F(qz)=±|F(qz)| and the phases, ν, can only take the values±1. The phases, ν, are needed to reconstruct the electron density profile from the scattering data following Eq. (1). When the membrane form factor F(qz) is measured at several qz values, a continuous function, T(qz), which is proportional to F(qz), can be fitted to the data. Once an analytical expression for T(qz) has been determined from fitting the experimental peak intensities, the phases ν, can be assessed from T(qz). The phase array ν, =[−1−1 1−1 1] was used for all samples. The electron densities determined by Eq. (1) are on a relative scale. In order to compare the electron densities in FIGS. 6c) and 7c), ρ in the membrane centre at z=0 was set to 0 and the electron density at the boundaries (z values between 25 and 30 Å depending on the lamellar spacing), which probe the water layer between the stacked membranes, were scaled to the electron density of water of ρ=0.33 e^−/Å^3. In order to prepare complexes of RBC membranes containing increasing amounts of aspirin, a solution of 9 mg/mL acetylsalicylic acid (molecular weight 180 g/mol) in 18.2 MΩ·cm water was prepared. 2 μL, 3 μL, 4 μL, 5 μL, and 6 μL of this solution were added to 100 μL of the final ghosts solution resulting in acetylsalicylic acid concentrations of 1 mM, 1.5 mM, 2 mM, 2.5 mM and 3 mM. The resulting solutions were applied onto silicon wafers and dried slowly and incubated for 5 days following the above protocol. The in-plane peaks are the result of a hexagonal packing of the lipid tails in the hydrophobic membrane core (planar group p6). The distance between two acyl tails is determined to be α=4π/(√3q), where q∥ is the position of the corresponding correlation peak. The area per lipid chain is obtained to AT=(√3/2) α^2 Lipid tail distances in lo and ld domains and lipid tail areas are listed in Table 1. […]

SMILES	membrane damage: reduction and oxidation peak currents [1]	ASA concentration at which lamellar spacing and membrane thickness of lo and ld domains coincide (RBC membranes; 0-3 mM ASA series) [mM]	effect on lamellar spacing and membrane thickness of ld lipid domains (RBC membranes; 1-3 mM ASA)	overall lamellar spacing of the RBC membranes (RBC membranes; ASA concentration of 2.5 mM) [Å]	overall membrane thickness (RBC membranes; ASA concentration of 2.5 mM) [Å]	domain preference of the interaction with RBC membranes (RBC membranes; electron densities of lo and ld domains, 1 mM ASA)	effect on lipid spacing in the ld domain (RBC membranes; in presence of aspirin)	distance between lipids alo in lo domains (RBC membranes; in presence of aspirin, increase from 4.69 Å in pure RBC membranes) [Å]	lipid tail area in lo domains (RBC membranes; in presence of aspirin, increase from 19.04 Å^2 in pure RBC membranes) [Å^2]	effect on lipid domain sizes (RBC membranes; increasing ASA content)	effect on peptide domain size (RBC membranes; increasing ASA content)	location of aspirin in the membrane (|z| of increased electron density, head group region) (RBC membranes; lo lipid domains, RBC membranes + 1 mM ASA vs pure RBC membrane) [Å]
CCCCCCCCCCCCOS(=O)(=O)[O-].[Na+] [SDS, sodium dodecyl sulfate]	increases in the reduction and oxidation peak currents											
CC(=O)Oc1ccccc1C(=O)O [aspirin, acetylsalicylic acid]		2.5	not affected	53.4	41.8	preferably interacts with lo regions	unchanged	4.85	20.37	approximately independent of aspirin concentration	slight increase in peptide domain size	~22.8
